# Measured values from PubChem BioAssay (NCI).
#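 These data come from cells grown in 96-well plates and exposed to compound for 48 hours at five concentrations. TGI is the concentration that stops growth completely.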
# How the values were obtained:
# Test in all cases: DTP human tumour cell line panel, 48 h
# MDA-MB-231 breast = system: MDA-MB-231 breast
# CCRF-CEM leukemia = system: CCRF-CEM leukemia
# MALME-3M melanoma = system: MALME-3M melanoma
# TK-10 renal = system: TK-10 renal
# EKVX NSCLC = system: EKVX NSCLC
# HCT-15 colon = system: HCT-15 colon
# CAKI-1 renal = system: CAKI-1 renal
# SF-268 CNS = system: SF-268 CNS
# MDA-MB-435 = system: MDA-MB-435
# UACC-62 melanoma = system: UACC-62 melanoma
# NCI/ADR-RES ovarian = system: NCI/ADR-RES ovarian
# SK-MEL-28 melanoma = system: SK-MEL-28 melanoma
# SN12C renal = system: SN12C renal
# SNB-19 CNS = system: SNB-19 CNS
# RPMI-8226 leukemia = system: RPMI-8226 leukemia
# PC-3 prostate = system: PC-3 prostate
# SW-620 colon = system: SW-620 colon
# NCI-H460 lung = system: NCI-H460 lung
# OVCAR-8 ovarian = system: OVCAR-8 ovarian
SMILES,TGI (MDA-MB-231 breast) [µM],TGI (CCRF-CEM leukemia) [µM],TGI (MALME-3M melanoma) [µM],TGI (TK-10 renal) [µM],TGI (EKVX NSCLC) [µM],TGI (HCT-15 colon) [µM],TGI (CAKI-1 renal) [µM],TGI (SF-268 CNS) [µM],TGI (MDA-MB-435) [µM],TGI (UACC-62 melanoma) [µM],TGI (NCI/ADR-RES ovarian) [µM],TGI (SK-MEL-28 melanoma) [µM],TGI (SN12C renal) [µM],TGI (SNB-19 CNS) [µM],TGI (RPMI-8226 leukemia) [µM],TGI (PC-3 prostate) [µM],TGI (SW-620 colon) [µM],TGI (NCI-H460 lung) [µM],TGI (OVCAR-8 ovarian) [µM]
C/C(=N/NC(=S)Nc1ccccc1Cl)c1ccccn1,17.3,1.1,13,17.1,7.15,18,19.7,34.6,17.1,7.49,6.53,23,8.4,48.5,47.3,27.3,29.9,9.85,9.18
COC(=O)c1ccccc1C1CN=NC12Cc1ccc3ccccc3c1C2=O (centres undefined),> 100,> 100,> 100,> 100,> 100,> 100,> 100,> 100,> 100,> 100,> 100,> 100,> 100,> 100,> 100,> 100,> 100,> 100,> 100
NC(=O)NC(=O)c1cnccn1,> 100,> 100,> 100,> 100,> 100,> 100,> 100,> 100,> 100,> 100,> 100,> 100,> 100,> 100,> 100,> 100,> 100,> 100,–
Cc1cc2nc3n[nH]c(N)c3nc2cc1C,> 100,> 100,> 100,> 100,> 100,> 100,> 100,> 100,> 100,> 100,> 100,> 100,> 100,> 100,> 100,> 100,> 100,> 100,> 100
c1ccc2c(c1)ccc1nc(-c3ccc4c(c3)OCO4)c3c(c12)CCCC3,44.3,> 100,63.2,–,> 100,> 100,> 100,88.1,87.7,82,> 100,> 100,98.6,> 100,> 100,> 100,> 100,> 100,> 100
Brc1cccc(/C=C/CN2CCN(CCOC(c3ccccc3)c3ccccc3)CC2)c1,29.1,29.5,31.5,33.9,40.8,40.1,30.2,39.6,25.2,31.8,30.4,37.5,32.3,37.7,19.4,26.5,45.4,28.1,29.7
O=C(c1ccccc1)c1ccc(C(c2c(O)c3ccccc3oc2=O)c2c(O)c3ccccc3oc2=O)cc1,> 71.4,> 81.2,37.6,36.7,72.3,> 95.3,25.3,64.7,> 74.2,39.5,62.5,> 73.3,> 77.2,55.8,60.9,> 74.5,> 100,> 100,> 75.1
O=C(OCCN=C1c2ccccc2CCc2ccccc21)c1cc([N+](=O)[O-])cc([N+](=O)[O-])c1,> 31.6,> 100,> 31.6,> 31.6,> 31.6,> 31.6,> 31.6,> 31.6,> 31.6,> 31.6,> 31.6,> 31.6,> 31.6,> 31.6,8.14,> 31.6,> 31.6,> 31.6,> 31.6
S=c1[nH]nc(COc2ccc3c(c2)CCCC3)n1/N=C/c1ccc(Cl)cc1,44.9,55.8,33.1,38.6,34.6,41,37.2,43,39.4,33.7,33.7,33.1,37.9,40,36.1,31.2,32.7,30.2,31.8
CCOC(=O)c1nc2cc(N3CCOCC3)c(F)cc2[nH]c1=O,> 100,> 100,> 100,> 100,> 100,> 100,> 100,> 100,> 100,> 100,> 100,> 100,> 100,> 100,> 100,> 100,> 100,> 100,> 100
Cc1ccc(/C=C2\CN(C)CC3=C2OC(N)=C(C#N)C3c2ccc(C)cc2)cc1 (centres undefined),> 63.7,22,37.2,> 80.8,56.5,42.9,74.6,> 100,34.7,89.1,> 100,> 71.5,35.3,73.4,> 48.7,> 45.1,> 100,34.3,> 92
COC(CN(C)C(=O)C(C)NC(=O)c1ccccc1)OC (centres undefined),> 100,> 100,> 100,> 100,> 100,> 100,> 100,> 100,> 100,> 100,> 100,–,> 100,–,> 100,> 100,> 100,> 100,> 100
Cc1[nH]c2ncn3nc(C(Cl)(Cl)Cl)nc3c2c1Cc1ccccc1,> 100,> 100,> 100,> 100,> 100,> 100,> 100,> 100,> 100,> 100,> 100,> 100,> 100,> 100,> 100,> 100,> 100,> 100,> 100
Cn1cc(C(=O)c2nccc3c2cnc2ccccc23)ccc1=O,> 100,> 100,> 100,> 100,> 100,> 100,> 100,> 100,> 100,> 100,> 100,> 100,> 100,> 100,> 100,> 100,> 100,> 100,> 100
Cc1ccc(Nc2nc(=S)[nH]c3[nH]ncc23)cc1,> 100,> 100,> 100,> 100,> 100,> 100,> 100,> 100,> 100,> 100,> 100,> 100,> 100,> 100,> 100,> 100,> 100,> 100,> 100
O=C(Cn1c(=O)ccn(C2OC(CO)C(O)C2F)c1=O)c1ccc(F)cc1 (centres undefined),> 100,> 100,> 100,> 100,> 100,> 100,> 100,> 100,> 100,> 100,> 100,> 100,> 100,> 100,> 100,> 100,> 100,> 100,> 100
c1ccc(N=C2c3ccccc3CN2c2ccccc2)cc1,> 100,> 100,> 100,> 100,> 100,> 100,> 100,> 100,> 100,> 100,> 100,> 100,> 100,> 100,> 100,> 100,> 100,> 100,> 100
Cc1ccc(-c2c(C#N)c(-c3ccc(Cl)cc3)c(C#N)c(=O)n2NS(=O)(=O)c2ccccc2)cc1,> 100,> 100,> 100,> 100,> 100,> 100,> 100,> 100,> 100,> 100,> 100,> 100,> 100,> 100,51.6,> 100,> 100,> 100,> 100
CC(=O)N=C(N=Nc1c(O)[nH]c2ccc(C)cc12)NC(C)=O,> 100,> 100,> 100,> 100,> 100,> 100,> 100,> 100,> 100,> 100,> 100,> 100,> 100,> 100,> 100,> 100,> 100,> 100,> 100
CC/C(=N\NC(=O)c1cccnc1)c1ccc2c(c1)OCCO2,> 100,> 100,91.5,> 100,> 100,> 100,> 100,> 100,> 100,> 100,> 100,> 100,> 100,> 100,> 100,> 100,> 100,> 100,> 100
O=C(O)CC(C(=O)O)c1ccccc1[N+](=O)[O-] (centres undefined),> 100,> 100,> 100,> 100,> 100,> 100,> 100,> 100,> 100,> 100,> 100,> 100,> 100,> 100,> 100,> 100,> 100,> 100,> 100
CN1CCCN2CCN(C)CCN(CC1)CC2,> 100,> 100,> 100,> 100,> 100,> 100,> 100,> 100,> 100,> 100,> 100,> 100,> 100,> 100,> 100,> 100,> 100,> 100,> 100
CSc1ccc2c(cc1=O)[C@@H](NC(C)=O)CCc1cc(O)c(O)c(O)c1-2,72.2,> 100,> 100,34.6,> 100,34.2,> 100,38.6,29.9,> 100,58.3,> 100,> 100,78.9,> 100,> 100,> 100,36.2,42.3
CNC(=S)/C(=N\Nc1nc[nH]c1C(N)=O)C(N)=S,> 24,–,> 54.8,> 57.5,> 100,> 100,> 94.4,> 54.2,> 100,> 92.8,> 64.5,> 100,18.9,> 100,55.7,> 100,> 92,> 100,> 57.5
CC(C)(C)OC(=O)[N+](=N)C(=O)C1CCC(=O)N1C(=O)OCc1ccccc1 (centres undefined),> 100,> 100,> 100,> 100,> 100,–,> 100,> 100,> 100,> 100,> 100,> 100,> 100,> 100,> 100,> 100,> 100,> 100,> 100
